Measurements from patent US12617814B2, “Neuroactive steroids and methods of use thereof” (Sage Therapeutics, LLC, priority 2013, dated 2026).

molecular target: T1, NMDA receptor (GRIN1/GRIN2A subunits) (Homo sapiens, UniProt Q05586+Q12879); assay: NMDA potentiation, whole-cell patch clamp of HEK cells expressing NMDA receptor; format: cell-based; conditions: HEK293, 0.1 uM compound; HEK cells; 30 μM NMDA and 5.0 μM Glycine; read-out: NMDA 1a2A (%) Potentiation 0.1 uM
T1 construct: expressed in transfected cells
T1 sequence (Q12879 23-1464, other chains not shown): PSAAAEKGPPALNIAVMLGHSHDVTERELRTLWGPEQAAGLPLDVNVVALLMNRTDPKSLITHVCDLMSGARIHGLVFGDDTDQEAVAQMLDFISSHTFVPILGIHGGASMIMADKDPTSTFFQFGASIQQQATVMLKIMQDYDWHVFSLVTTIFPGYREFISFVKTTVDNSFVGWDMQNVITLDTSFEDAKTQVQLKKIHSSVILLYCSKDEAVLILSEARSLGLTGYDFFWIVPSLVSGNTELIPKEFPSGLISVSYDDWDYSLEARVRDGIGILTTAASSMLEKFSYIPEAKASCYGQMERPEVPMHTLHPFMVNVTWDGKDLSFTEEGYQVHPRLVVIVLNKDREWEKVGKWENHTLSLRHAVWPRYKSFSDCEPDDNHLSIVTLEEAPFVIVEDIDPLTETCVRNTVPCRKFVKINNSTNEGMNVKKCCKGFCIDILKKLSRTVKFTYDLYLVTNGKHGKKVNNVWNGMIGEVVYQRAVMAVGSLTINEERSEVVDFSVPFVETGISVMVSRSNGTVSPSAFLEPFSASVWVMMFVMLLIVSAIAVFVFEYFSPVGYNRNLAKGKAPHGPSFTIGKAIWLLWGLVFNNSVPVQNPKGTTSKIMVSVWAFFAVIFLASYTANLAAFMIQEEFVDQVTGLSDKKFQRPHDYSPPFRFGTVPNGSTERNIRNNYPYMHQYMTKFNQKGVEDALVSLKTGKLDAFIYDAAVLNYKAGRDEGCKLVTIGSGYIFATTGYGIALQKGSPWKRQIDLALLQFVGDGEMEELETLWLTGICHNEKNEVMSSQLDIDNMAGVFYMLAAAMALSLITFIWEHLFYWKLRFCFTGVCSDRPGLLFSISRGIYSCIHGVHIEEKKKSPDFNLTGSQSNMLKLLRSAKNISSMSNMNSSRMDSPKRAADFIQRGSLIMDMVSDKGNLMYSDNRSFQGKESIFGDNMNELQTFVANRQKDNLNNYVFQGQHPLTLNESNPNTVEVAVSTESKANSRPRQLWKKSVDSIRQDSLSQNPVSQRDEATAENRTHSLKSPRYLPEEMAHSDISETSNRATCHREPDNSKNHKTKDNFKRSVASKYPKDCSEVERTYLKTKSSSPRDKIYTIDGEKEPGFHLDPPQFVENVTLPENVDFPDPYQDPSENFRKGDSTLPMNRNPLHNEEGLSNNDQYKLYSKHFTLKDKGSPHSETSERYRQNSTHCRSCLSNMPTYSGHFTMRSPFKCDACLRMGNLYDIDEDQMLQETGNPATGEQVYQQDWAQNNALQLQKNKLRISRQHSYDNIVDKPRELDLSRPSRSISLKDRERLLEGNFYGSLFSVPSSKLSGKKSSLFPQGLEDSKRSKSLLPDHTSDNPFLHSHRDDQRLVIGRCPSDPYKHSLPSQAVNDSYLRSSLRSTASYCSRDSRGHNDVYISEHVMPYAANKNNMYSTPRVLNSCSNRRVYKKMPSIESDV
Method: (§1) NMDA potentiation was assessed using either whole cell patch clamp of mammalian cells which expressed NMDA receptors, or using two-electrode voltage clamp (TEVC) of Xenopus Laevis oocytes expressing NMDA receptors.
NMDA/Glycine peak and steady-state currents were recorded from stably transfected cells expressing the NMDA receptor and the modulatory effects of the test items on these currents were investigated.
Cells were stably transfected with human GRIN1 (variant NR1-3). These cells were transiently transfected (Lipofectamine™) with GRIN2A cDNA and CD8 (pLeu) antigene cDNA. About 24-72 hours following transfection 1 μl Dynabeads M-45 CD8 was added to identify successfully transfected cells (Jurman et al., Biotechniques (1994) 17:876-881). Cells were passaged to a confluence of 50-80%. Cells were seeded onto Poly-L-Lysine coated cover slips covered with culture complete medium in a 35 mm culture dish. Confluent clusters of cells are electrically coupled (Pritchett et al., Science (1988), 242:1306-8). Because responses in distant cells are not adequately voltage clamped and because of uncertainties about the extent of coupling (Verdoorn et al., Neuron (1990), 4:919-28), cells were cultivated at a density that enables single cells (without visible connections to neighboring cells) to be measured. Cells were incubated at 37° C. in a humidified atmosphere with 5% CO2 (rel. humidity about 95%). The cells were continuously maintained in and passaged in sterile culture flasks containing a 1:1 mixture of Dulbecco's modified eagle medium and nutrient mixture F-12 (D-MEM/F-12 1×, liquid, with L-Glutamine) supplemented with 9% fetal bovine serum and 0.9% Penicillin/Streptomycin solution. The complete medium was supplemented with 3.0 μg/ml Puromycin.
Whole cell currents were measured with HEKA EPC-10 amplifiers using PatchMaster software. Cell culture dishes for recordings were placed on the dish holder of the microscope and continuously perfused (1 ml/min) with “bath solution” (NaCl 137 mM, KCl 4 mM, CaCl2 1.8 mM, MgCl2 1 mM, HEPES 10 mM, D-Glucose 10 mM, pH (NaOH) 7.4). All solutions applied to cells including the pipette solution were maintained at room temperature (19° C.-30° C.). After formation of a Gigaohm seal between the patch electrodes and transfected individual HEK 293 cells (pipette resistance range: 2.5 MΩ-6.0 MΩ; seal resistance range: >1 GQ) the cell membrane across the pipette tip was ruptured to assure electrical access to the cell interior (whole-cell patch-configuration). At this point the bath solution is switched to “NMDA bath solution” (NaCl 137 mM, KCl 4 mM, CaCl2 2.8 mM, HEPES 10 mM, D-Glucose 10 mM, Cremophore 0.02%, pH (NaOH) 7.4). NMDA inward currents were measured upon application of 30 μM NMDA (and 5.0 μM Glycine) to patch-clamped cells (2 applications) for 5 s. The cells were voltage clamped at a holding potential of −80 mV. For the analysis of test articles, NMDA receptors were stimulated by 30 μM NMDA and 5.0 μM Glycine after sequential pre-incubation of increasing concentrations of the test article. Pre-incubation duration was 30 s. Stimulation duration was 5 s Test articles were dissolved in DMSO to form stock solutions of 0.1 mM and 1 mM. Test articles were diluted to 0.1 μM and 1 μM in “NMDA bath solution”. Both concentrations of test articles were tested on each cell. The same concentration was applied at least three times or until the steady state current amplitude was reached. Every day one cell was tested with 50 μM PREGS (positive control) using the same application protocol to test whether cells were successfully transfected with NMDA receptors.

SMILES	activation at 0.1 µM [%]
C[C@H](CC[C@@H](O)C(F)(F)F)[C@H]1CC[C@H]2[C@@H]3CC=C4C[C@@](C)(O)CC[C@]4(C)[C@H]3CC[C@]12C [Compound 1-17]	150 to 250
CC(CCC(C)(C)O)[C@H]1CC[C@H]2[C@@H]3CC[C@H]4C[C@@](C)(O)CC[C@]4(C)[C@H]3CC[C@]12C (stereo partly shown) [Comparison compound 3, reference compound]	75 to 150

same assay, conditions: HEK293, 1 uM compound; HEK cells; 30 μM NMDA and 5.0 μM Glycine; read-out: NMDA 1a2A (%) Potentiation 1 uM

SMILES	activation at 1 µM [%]
C[C@H](CC[C@@H](O)C(F)(F)F)[C@H]1CC[C@H]2[C@@H]3CC=C4C[C@@](C)(O)CC[C@]4(C)[C@H]3CC[C@]12C [Compound 1-17]	150 to 250
CC(CCC(C)(C)O)[C@H]1CC[C@H]2[C@@H]3CC[C@H]4C[C@@](C)(O)CC[C@]4(C)[C@H]3CC[C@]12C (stereo partly shown) [Comparison compound 3, reference compound]	150 to 250

molecular target: NMDA receptor (GRIN1/GRIN2A) (Homo sapiens, UniProt Q05586+Q12879); assay: NMDA potentiation, two electrode voltage clamp (TEVC) of Xenopus oocytes expressing NMDA receptor; format: cell-based; conditions: 10 μM compound, 3 μM Glutamate and Glycine
Sequence (Q12879 23-1464, other chains not shown): as above
Method: as §1
The Two Electrode Voltage Clamp (TEVC) technique was used to investigate the effects of compounds (10 μM) on the NMDA receptor (GRIN1/GRIN2A) expressed in Xenopus oocytes. Glutamate/Glycine peak and steady-state currents were recorded from oocytes that expressed the NMDA receptor and the modulatory effects of the test items on these currents were investigated.
Ovaries were harvested from Xenopus Laevis females that had been deeply anesthetized by cooling at 4° C. and immersion in Tricaine methanesulfonate (MS-222 at a concentration of 150 mg/L) in sodium bicarbonate (300 mg/L). Once anesthetized the animal was decapitated and pithed following the rules of animal rights from the Geneva canton. A small piece of ovary was isolated for immediate preparation while the remaining part was placed at 4° C. in a sterile Barth solution containing in mM NaCl 88, KCl 1, NaHCO3 2.4, HEPES 10, MgSO4·7H2O 0.82, Ca(NO3)2·4H2O 0.33, CaCl2·6H2O 0.41, at pH 7.4, and supplemented with 20 μg/ml of kanamycin, 100 unit/ml penicillin and 100 μg/ml streptomycin. All recordings were performed at 18° C. and cells were super-fused with medium containing in mM: NaCl 82.5, KCl 2.5, HEPES 5, CaCl2·2H2O, ·6H2O 1, pH 7.4.
Oocytes were injected with either cDNAs encoding for the human GRIN1 and GRIN2A subunits, using a proprietary automated injection device (Hogg et al., J. Neurosci. Methods, (2008) 169: 65-75) and receptor expression was assessed using electrophysiology at least two days later. The ratio of cDNA injection for GRIN1 and GRIN2A was 1:1. Electrophysiological recordings were made using an automated process equipped with standard TEVC and data were captured and analyzed using a proprietary data acquisition and analysis software running under Matlab (Mathworks Inc.). The membrane potential of the oocytes was maintained at −80 mV throughout the experiments. To explore the effects of proprietary compounds, currents were evoked by applying 3 μM Glutamate and […] Glycine for 10 s. Oocytes were then washed for 90 s before being exposed to the test article at a concentration of 10 μM for 120 s. Following this, 3 μM Glutamate and […] Glycine were immediately reapplied for 10 s. Potentiation of both the peak current and the steady state current was assessed. For statistical analysis values were computed either with Excel (Microsoft) or Matlab (Mathworks Inc.). To obtain mean measurements with standard deviations, all experiments were carried out using at least three cells.
Glutamate was prepared as a concentrated stock solution ([…]) in water and then diluted in the recording medium to obtain the desired test concentration. Glycine was prepared as a stock solution at 1 M in water. Compounds were prepared as stock solution ([…]) in DMSO and then diluted in the recording medium to obtain the desired test concentration.

SMILES	activation at 10 µM [%]
C[C@H](CC(F)(F)[C@@H](C)O)[C@H]1CC[C@H]2[C@@H]3CC=C4C[C@@](C)(O)CC[C@]4(C)[C@H]3CC[C@]12C [Compound 11-16]	10 to 50
COCC[C@@](C)(O)CC[C@@H](C)[C@H]1CC[C@H]2[C@@H]3CC=C4C[C@@](C)(O)CC[C@]4(C)[C@H]3CC[C@]12C [Compound 10-23]	10 to 50
CC[C@]1(O)CC[C@@]2(C)C(=CC[C@H]3[C@@H]4CC[C@H]([C@H](C)CC[C@H](O)C(F)(F)F)[C@@]4(C)CC[C@@H]32)C1 [Compound 2-8]	50 to 100
CCC[C@@](C)(O)CC[C@@H](C)[C@H]1CC[C@H]2[C@@H]3CC[C@H]4C[C@@](C)(O)CC[C@]4(C)[C@H]3CC[C@]12C [Compound 5-8]	50 to 100
C#CC(C)(O)CC[C@@H](C)[C@H]1CC[C@H]2[C@@H]3CC[C@H]4C[C@@](C)(O)CC[C@]4(C)[C@H]3CC[C@]12C (stereo partly shown) [Compound 10-6]	50 to 100
C[C@H](CC[C@@](C)(O)C1CC1)[C@H]1CC[C@H]2[C@@H]3CC[C@H]4C[C@@](C)(O)CC[C@]4(C)[C@H]3CC[C@]12C [Compound 9-7]	10 to 50
C[C@H](CC[C@](C)(O)C(F)(F)F)[C@H]1CC[C@H]2[C@@H]3CC=C4C[C@@](C)(O)CC[C@]4(C)[C@H]3CC[C@]12C [Compound 3-5]	10 to 50
C[C@H](CCC(C)(O)CCCO)[C@H]1CC[C@H]2[C@@H]3CC=C4C[C@@](C)(O)CC[C@]4(C)[C@H]3CC[C@]12C (stereo partly shown) [Compound 6-3]	50 to 100
C[C@H](CC[C@](C)(O)CCO)[C@H]1CC[C@H]2[C@@H]3CC=C4C[C@@](C)(O)CC[C@]4(C)[C@H]3CC[C@]12C [Compound 10-21]	10 to 50
C=CC[C@](C)(O)CC[C@@H](C)[C@H]1CC[C@H]2[C@@H]3CC[C@H]4C[C@@](C)(O)CC[C@]4(C)[C@H]3CC[C@]12C [Compound 6-11]	10 to 50
C=CC(C)(O)CC[C@@H](C)[C@H]1CC[C@H]2[C@@H]3CC=C4C[C@@](C)(O)CC[C@]4(C)[C@H]3CC[C@]12C (stereo partly shown) [Compound 10-12]	10 to 50
COCCC(C)(O)CC[C@@H](C)[C@H]1CC[C@H]2[C@@H]3CC=C4C[C@@](C)(O)CC[C@]4(C)[C@H]3CC[C@]12C (stereo partly shown) [Compound 10-14]	50 to 100
CC[C@]1(O)CC[C@@]2(C)[C@@H](CC[C@@H]3[C@@H]2CC[C@]2(C)[C@@H]([C@H](C)CCC(O)C(F)(F)F)CC[C@@H]32)C1 (stereo partly shown) [Compound 2-5]	50 to 100
CC[C@](C)(O)CC[C@@H](C)[C@H]1CC[C@H]2[C@@H]3CC=C4C[C@@](C)(O)CC[C@]4(C)[C@H]3CC[C@]12C [Compound 4-12]	50 to 100
C=C[C@@](C)(O)CC[C@@H](C)[C@H]1CC[C@H]2[C@@H]3CC=C4C[C@@](C)(O)CC[C@]4(C)[C@H]3CC[C@]12C [Compound 10-12B]	10 to 50
C[C@H](CCC(C)(O)C(F)(F)F)[C@H]1CC[C@H]2[C@@H]3CC[C@H]4C[C@@](C)(O)CC[C@]4(C)[C@H]3CC[C@]12C (stereo partly shown) [Compound 3-3]	50 to 100
C[C@H](CC[C@](C)(O)C1CC1)[C@H]1CC[C@H]2[C@@H]3CC[C@H]4C[C@@](C)(O)CC[C@]4(C)[C@H]3CC[C@]12C [Compound 9-8]	10 to 50
CC[C@]1(O)CC[C@@]2(C)[C@@H](CC[C@@H]3[C@@H]2CC[C@]2(C)[C@@H]([C@H](C)CC[C@H](O)C(F)(F)F)CC[C@@H]32)C1 [Compound 2-10]	10 to 50
C=C[C@](C)(O)CC[C@@H](C)[C@H]1CC[C@H]2[C@@H]3CC=C4C[C@@](C)(O)CC[C@]4(C)[C@H]3CC[C@]12C [Compound 10-12A]	10 to 50
C[C@H](CC[C@@](C)(O)C(F)(F)F)[C@H]1CC[C@H]2[C@@H]3CC=C4C[C@@](C)(O)CC[C@]4(C)[C@H]3CC[C@]12C [Compound 3-6]	50 to 100
C[C@H](CCC(C)(O)CCO)[C@H]1CC[C@H]2[C@@H]3CC=C4C[C@@](C)(O)CC[C@]4(C)[C@H]3CC[C@]12C (stereo partly shown) [Compound 10-13]	50 to 100
CC(C)[C@](C)(O)CC[C@@H](C)[C@H]1CC[C@H]2[C@@H]3CC[C@H]4C[C@@](C)(O)CC[C@]4(C)[C@H]3CC[C@]12C [Compound 8-6]	10 to 50
CC(C)[C@@](C)(O)CC[C@@H](C)[C@H]1CC[C@H]2[C@@H]3CC[C@H]4C[C@@](C)(O)CC[C@]4(C)[C@H]3CC[C@]12C [Compound 8-5]	10 to 50
CCCC[C@@](C)(O)CC[C@@H](C)[C@H]1CC[C@H]2[C@@H]3CC[C@H]4C[C@@](C)(O)CC[C@]4(C)[C@H]3CC[C@]12C [Compound 7-7]	10 to 50
